Assay results published in PubChem BioAssay (NCI).
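Cultured in 96-well plates, cells were exposed to test compound for 48 hours across five concentrations. Definition used: TGI = concentration required for complete inhibition of growth.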

How the values were obtained:
Assay in all cases: NCI anticancer screen, dose series, 48 h
[1] = system: 786-0 renal
[2] = system: A498 renal
[3] = system: A549 NSCLC
[4] = system: ACHN renal
[5] = system: BT-549 breast
[6] = system: CCRF-CEM leukemia
[7] = system: COLO 205 colon
[8] = system: DU-145 prostate
[9] = system: EKVX NSCLC
[10] = system: HCC-2998 colon
[11] = system: HCT-116 colon
[12] = system: HCT-15 colon
[13] = system: HL-60(TB) leukemia
[14] = system: HOP-62 NSCLC
[15] = system: HOP-92 NSCLC
[16] = system: HS 578T breast
[17] = system: HT29 colon
[18] = system: IGROV1 ovarian
[19] = system: K-562 leukemia
[20] = system: LOX IMVI melanoma
[21] = system: M14 melanoma
[22] = system: MALME-3M melanoma
[23] = system: MCF7 breast
[24] = system: MDA-MB-231 breast
[25] = system: MDA-N
[26] = system: MOLT-4 leukemia
[27] = system: NCI-H226 lung
[28] = system: NCI-H23 lung
[29] = system: NCI-H460 lung
[30] = system: NCI-H522 lung
[31] = system: NCI/ADR-RES ovarian
[32] = system: OVCAR-5 ovarian
[33] = system: OVCAR-8 ovarian
[34] = system: PC-3 prostate
[35] = system: RPMI-8226 leukemia
[36] = system: RXF 393 renal
[37] = system: SF-268 CNS
[38] = system: SF-295 CNS
[39] = system: SK-MEL-2 melanoma
[40] = system: SK-MEL-28 melanoma
[41] = system: SK-MEL-5 melanoma
[42] = system: SK-OV-3 ovarian
[43] = system: SN12C renal
[44] = system: SNB-19 CNS
[45] = system: SNB-75 CNS
[46] = system: SR leukemia
[47] = system: SW-620 colon
[48] = system: T-47D breast
[49] = system: TK-10 renal
[50] = system: U251 CNS
[51] = system: UACC-257 melanoma
[52] = system: UACC-62 melanoma
[53] = system: UO-31 renal
[54] = system: CAKI-1 renal
[55] = system: KM12 colon
[56] = system: MDA-MB-435
[57] = system: OVCAR-3 ovarian
[58] = system: OVCAR-4 ovarian
[59] = system: SF-539 CNS

Measured: TGI

CN(C)c1nc2nonc2nc1Nc1ccccc1
not listed: [54] | [55] | [56] | [57] | [58] | [59]
> 100 µM: all other assays above

O=C1CC(=O)c2c(N3CCCC3)sc(N3CCCC3)c21
not listed: [24]
> 100 µM: all other assays above

CC1(C)OC(C(C)(C)O)C(C(C)(C)O)O1 (stereo unspecified)
not listed: [2] | [15] | [56] | [57]
> 100 µM: all other assays above
